The subject of series [1] is NFκB. As to the kind of experiment: NFκB luciferase reporter gene assay in HeLa-NFκB luciferase reporter cell line. The format is cell-based. Conditions: 16 h; for EC50: 37 °C, luciferase/CTG normalized, read-out: NFκB-luc HeLa cells EC50. On the procedure:
The PKC activator compounds were evaluated for their effect on NFκB expression using a luciferase reporter gene expression system. (The indicators “K-101,” “K101” and “K-101A” may be used interchangeably in this disclosure and appended figures).
A HeLa-NFκB luciferase reporter cell line (Wuxi Biology) was used to assess a group of PKC activator compounds for their ability to activate NFκB-driven transcription. Two sets of cells at 20000 cells/well were plated, grown overnight, and then treated for 16 h at 37 °C with DMSO, 6 doses of each compound, or TNF-α (final concentration of 10 ng/mL, positive control) in triplicates. One set of cells was assayed for luciferase activity (Promega, Cat #E1500) and the other set was assayed to determine the number of viable cells (for cell number normalization) using CellTiter-Glo (CTG) kit (Promega, Cat #G7570) according to manufacture's procedures. Normalized data (luciferase value/CTG value) were analyzed using GraphPad Prism5 to calculate EC50 for each compound (see Table 3).

In series [2] the test system is human PBMC cells. Kind of series: cytokine/chemokine gene expression (TaqMan) in human PBMC. Conditions: 4 h; for fold induction at 0.01 µM / fold induction at 0.03 µM / fold induction at 0.1 µM / fold induction at 1 µM: Homo sapiens, PBMC.
Protocol: Materials and methods: 100 million frozen human PBMC cells were purchased from Allcells (100 million/vial). The cells were thawed and recovered for one day before 1.5-1.8 million cells in 900 μl RPMI1640 with 10% heat-inactivated FBS were seeded in each well of 24-well plates. Various compounds in DMSO stock (500×) were diluted 50-fold with the same media to make 10× compound stock for most compounds. 1 μL of 5 mg/mL PMA was diluted to 99 μL of the media to make 50 μg/mL PMA. For PMA with ionomycin treatment condition, 1.5 μL of 50 μg/mL PMA and 3 μL of 500 μg/mL ionomycin were added to 145.5 μL of the media to make 10× compound stock. Sources of the compounds are as follows: PMA from Abcam (Abcam #ab120297); Ionomycin from Sigma (Sigma #I0634); Resiquimod from Sellect Chem. (Selleckchem #S8133); and LPS from Sigma (Sigma #L6143).
Each treatment condition was performed in duplicates. After treatment, mRNA was extracted from cells and samples from duplicates were combined for TaqMan gene expression assays (ThermoFisher) in triplicates. Expression of 19 genes (IL-1β, IL-2, IL-4, IL-6, IL-8, IL-10, IL-13, IL-18, IL-12p70/IL-12A, IL-12p40/IL-12B, IFN-α, IFN-γ, GM-CSF/CSF2, CCL2/MCP-1, MIP1a/CCL3, TNF-α, MX1, OAS1, ISG15) along with two housekeeping gene controls, 18S and GAPDH, was determined. Target gene expression in each sample was determined by relative quantification (RQ) using the comparative Ct (ΔΔCT) method. This method measures the Ct difference (ΔCT) between target gene and the housekeeping genes (18S & GAPDH), then compares the ΔCT values of treated samples to DMSO-treated control samples. The mean ΔCT value of the DMSO-treated control from two independent DMSO-treated control samples was used. The relative expression level of target gene was calculated by using the equation:
relative expression=2^−ΔΔCT
Setting [3] is: 0.03 μM, vs DMSO, 240 min, 0.03 µM.
The mark [4] stands for this setting: 0.10 μM, vs DMSO, 240 min, 0.1 µM.

Results on four compounds are retold here after patent US20260364168A1, “USE OF PROTEIN KINASE C (PKC) ACTIVATING COMPOUNDS AS AN ADJUVANT” (priority 2022, published 2026).

Like-named read-outs stand apart in the source and are kept apart here.

`CC1=C[C@H]2[C@@]3(O)[C@H](C)C[C@]4(OC(=O)[C@@H](N)Cc5ccccc5)[C@H]([C@@H]3C=C(CO)C[C@]2(O)C1=O)C4(C)C`: the EC50 in series [1] (Homo sapiens, HeLa) was in the range of 0.2 to 0.6 µM.
Consider `CC1=C[C@H]2[C@@]3(O)[C@H](C)C[C@]4(OC(=O)C(N)CCCCCCc5ccccc5)[C@H]([C@@H]3C=C(CO)C[C@]2(O)C1=O)C4(C)C` (stereo partly drawn), for which the EC50 in series [1] is 0.001 to 0.01 µM. For the same compound, in series [2] (setting [3]), the “IL-2 gene relative expression” value turned out to be 3.59. The “IL-13 gene relative expression” value in series [2] (setting [3]) came out at 5.87; in series [2] (setting [4]), 121.59. Moreover, in series [2] (setting [3]), the “IL-18 gene relative expression” value was 0.19. Further, the “TNF-α gene relative expression” value in series [2] (setting [3]) was determined as 2.91. Also, the “CCL2 gene relative expression” value in series [2] (setting [4]) stood at 0.40. Besides, in series [2] (setting [4]), the “GM-CSF gene relative expression” value was 21.01. Further, the “IFNγ gene relative expression” value in series [2] (setting [4]) was determined as 11.33. Also, the “IL-6 gene relative expression” value in series [2] (setting [4]) was 6.15. In addition, the “IL-10 gene relative expression” value in series [2] (setting [4]) is 0.12. For the same compound, the “MIP1a (CCL3) gene relative expression” value in series [2] (setting [4]) was 4.95. Further, the fold induction at 0.01 µM in series [2] (read-out: CCL2 gene relative expression, 0.01 μM, 4 h, vs DMSO) was 1.81; in series [2] (read-out: GM-CSF gene relative expression, 0.01 μM, 4 h, vs DMSO), 1; in series [2] (read-out: IFN-α gene relative expression, 0.01 μM, 4 h, vs DMSO), 0.73; in series [2] (read-out: IFNγ gene relative expression, 0.01 μM, 4 h, vs DMSO), 1.46; in series [2] (read-out: IL-1β gene relative expression, 0.01 μM, 4 h, vs DMSO), 0.38; in series [2] (read-out: IL-2 gene relative expression, 0.01 μM, 4 h, vs DMSO) it was 1.32. Besides, the fold induction at 0.01 µM in series [2] (read-out: IL-6 gene relative expression, 0.01 μM, 4 h, vs DMSO) worked out at 0.57; in series [2] (read-out: IL-8 gene relative expression, 0.01 μM, 4 h, vs DMSO), 0.44; in series [2] (read-out: IL-10 gene relative expression, 0.01 μM, 4 h, vs DMSO) it was 1.59; in series [2] (read-out: IL-12p40 gene relative expression, 0.01 μM, 4 h, vs DMSO) it was 0.34; in series [2] (read-out: IL-12p70 gene relative expression, 0.01 μM, 4 h, vs DMSO), 1.05; in series [2] (read-out: IL-13 gene relative expression, 0.01 μM, 4 h, vs DMSO), 0.37. For the same compound, the fold induction at 0.01 µM was 0.63 in series [2] (read-out: IL-18 gene relative expression, 0.01 μM, 4 h, vs DMSO); 0.94 in series [2] (read-out: ISG15 gene relative expression, 0.01 μM, 4 h, vs DMSO); 1.29 in series [2] (read-out: MIP1a (CCL3) gene relative expression, 0.01 μM, 4 h, vs DMSO); 0.77 in series [2] (read-out: MX1 gene relative expression, 0.01 μM, 4 h, vs DMSO); 0.85 in series [2] (read-out: OAS1 gene relative expression, 0.01 μM, 4 h, vs DMSO); 1.34 in series [2] (read-out: TNF-α gene relative expression, 0.01 μM, 4 h, vs DMSO). Further, the fold induction at 0.03 µM turned out to be 6.53 in series [2] (read-out: CCL2 gene relative expression, 0.03 μM, 4 h, vs DMSO); 1.88 in series [2] (read-out: GM-CSF gene relative expression, 0.03 μM, 4 h, vs DMSO); 1.21 in series [2] (read-out: IFN-α gene relative expression, 0.03 μM, 4 h, vs DMSO); 1.49 in series [2] (read-out: IFNγ gene relative expression, 0.03 μM, 4 h, vs DMSO); 0.94 in series [2] (read-out: IL-1β gene relative expression, 0.03 μM, 4 h, vs DMSO); 1.19 in series [2] (read-out: IL-4 gene relative expression, 0.03 μM, 4 h, vs DMSO). In addition, the fold induction at 0.03 µM in series [2] (read-out: IL-6 gene relative expression, 0.03 μM, 4 h, vs DMSO) was determined as 1.23; in series [2] (read-out: IL-8 gene relative expression, 0.03 μM, 4 h, vs DMSO), 0.66; in series [2] (read-out: IL-10 gene relative expression, 0.03 μM, 4 h, vs DMSO), 0.86; in series [2] (read-out: IL-12p40 gene relative expression, 0.03 μM, 4 h, vs DMSO), 0.38; in series [2] (read-out: IL-12p70 gene relative expression, 0.03 μM, 4 h, vs DMSO) it was 0.96; in series [2] (read-out: ISG15 gene relative expression, 0.03 μM, 4 h, vs DMSO), 0.97. Besides, the fold induction at 0.03 µM in series [2] (read-out: MIP1a (CCL3) gene relative expression, 0.03 μM, 4 h, vs DMSO) amounted to 1.67; in series [2] (read-out: MX1 gene relative expression, 0.03 μM, 4 h, vs DMSO), 0.65; in series [2] (read-out: OAS1 gene relative expression, 0.03 μM, 4 h, vs DMSO), 0.55. Besides, the fold induction at 0.1 µM is 0.8 in series [2] (read-out: IFN-α gene relative expression, 0.10 μM, 4 h, vs DMSO); 3 in series [2] (read-out: IL-1β gene relative expression, 0.10 μM, 4 h, vs DMSO); 4.98 in series [2] (read-out: IL-2 gene relative expression, 0.10 μM, 4 h, vs DMSO); 2.78 in series [2] (read-out: IL-4 gene relative expression, 0.10 μM, 4 h, vs DMSO); 0.44 in series [2] (read-out: IL-8 gene relative expression, 0.10 μM, 4 h, vs DMSO); 0.74 in series [2] (read-out: IL-12p70 gene relative expression, 0.10 μM, 4 h, vs DMSO). Moreover, the fold induction at 0.1 µM in series [2] (read-out: IL-18 gene relative expression, 0.10 μM, 4 h, vs DMSO) was 0.05; in series [2] (read-out: ISG15 gene relative expression, 0.10 μM, 4 h, vs DMSO) it was 1.57; in series [2] (read-out: MX1 gene relative expression, 0.10 μM, 4 h, vs DMSO), 1.06; in series [2] (read-out: OAS1 gene relative expression, 0.10 μM, 4 h, vs DMSO), 0.71; in series [2] (read-out: TNF-α gene relative expression, 0.10 μM, 4 h, vs DMSO), 6.52.
For `CCOCc1nc2c(N)nc3ccccc3c2n1CC(C)(C)O` [Resiquimod, reference compound], the “IL-6 induction compared to DMSO control” value in series [2] was more than 400 fold. The “IL-12p40 expression (in words)” value in series [2] was “highly induced”. Further, the “ISG15 expression (in words)” value in series [2] was “highly induced”. For the same compound, the “MX1 expression (in words)” value in series [2] is “highly induced”. Moreover, the “OAS1 expression (in words)” value in series [2] is given as “highly induced”. Further, the fold induction at 1 µM in series [2] (read-out: CCL2 gene relative expression) came to 3.73; in series [2] (read-out: GM-CSF gene relative expression), 8.79; in series [2] (read-out: IFN-α gene relative expression) it was 1.47; in series [2] (read-out: IFNγ gene relative expression), 1.28; in series [2] (read-out: IL-1β gene relative expression), 102; in series [2] (read-out: IL-2 gene relative expression), 1.21. For the same compound, the fold induction at 1 µM in series [2] (read-out: IL-6 gene relative expression) is 487; in series [2] (read-out: IL-8 gene relative expression) it was 9.87; in series [2] (read-out: IL-10 gene relative expression), 5.65; in series [2] (read-out: IL-12p40 gene relative expression) it was 786; in series [2] (read-out: IL-12p70 gene relative expression) it was 2.48; in series [2] (read-out: IL-13 gene relative expression), 3.52. Also, the fold induction at 1 µM in series [2] (read-out: IL-18 gene relative expression) was found to be 1.33; in series [2] (read-out: ISG15 gene relative expression), 14.8; in series [2] (read-out: MIP1a (CCL3) gene relative expression), 47.7; in series [2] (read-out: MX1 gene relative expression), 17; in series [2] (read-out: OAS1 gene relative expression) it was 12.7; in series [2] (read-out: TNF-α gene relative expression), 7.38.
For the compound TNF-α [reference compound], the “activation of NFκB luciferase reporter gene expression above DMSO control” value in series [1] (10 ng/mL) is approximately 10 fold.

In general, EC50 refers to the concentration that produces a half-maximal response.
